One series relates to CNS. In words: CNS effects after oral or intraperitoneal administration to the mouse. The format is in vivo. The protocol: 5,6-Dihydro-4-methyl-5-(4-nitrophenyl)-3-phenyl-4H-1,2,4-thiadiazine 1,1-dioxide was not effective in preventing the phenylquinone writhing syndrome in mice at an oral dose of 100 mg./kg. body weight or subcutaneous dose of 6 mg./kg. body weight.
For series [1], the system named is phenylquinone writhing syndrome. In words: Phenylquinone writhing test (analgesic activity). The series is classed as in vivo. The note with it: mice. The procedure:
In this test, groups of 10-20 mice are injected subcutaneously or orally with different doses of the test compound. At predetermined time intervals, the mice receive 2.5 mg./kg. phenylquinone intraperitoneally. The total number of writhing episodes is counted for each mouse for 10 min. and the average percent decrease in writhing recorded for each dose.
The novel styrylsulfonylamidines of Formula V in addition to being useful as precursors to the styrylamidine products of Formula I have analgesic utility as measured in the foregoing phenylquinone writhing test. A preferred class of styrylsulfonylamidines of Formula V having particularly significant analgesic activity are those wherein R1 and R2 are each hydrogen, nitro or halogen and A is phenyl or lower alkyl of from 1 to 8 carbon atoms inclusive. Analgesic activity at the time interval indicated following administration of compounds representative of this class are given in Table I below.
(Writhing tests count abdominal constrictions after an irritant is injected.)

For the next series, the system named is urine output. In words: Lipschitz diuretic test. The series is classed as in vivo. From the text:
N-(2,6-dichlorostyryl)acetamidine is orally effective as a diuretic agent according to the W. L. Lipschitz, et al., J. Pharmacol. Expt.

The subject of another series is mouse electroshock. In words: Mouse electroshock test of Swinyard (anticonvulsant). The series is classed as in vivo. From the text:
Aside from antithrombogenic and analgesic effects, compounds of Formula I wherein R1 and R2 substituents are halogen (particularly chlorine), R3 is hydrogen or methyl and A is selected from the group consisting of lower alkyl of from 1 to 8 carbon atoms inclusive or cycloalkyl of from 3 to 6 carbon atoms inclusive, are useful as anticonvulsant, hypotensive and antihypertensive agents. […] For example, N-(2,6-dichlorostyryl)acetamidine in the mouse electroshock test of E. A. Swinyard, J. Amer. Pharm.

The subject of series [2] is blood pressure. In words: Blood pressure and heart rate in anesthetized normotensive dog. The series is classed as in vivo. The procedure:
(§1) For instance, at 1.0 mg./kg. body weight, this compound provides a 33% reduction in blood pressure while at 10.0 mg./kg. body weight, a 64% reduction in blood pressure is obtained. In the same test procedure, the prior art cinnamylamidine, N-(4-chlorocinnamyl)acetamidine, provided a 12% increase in blood pressure with a 6% decrease in heart rate at a dose of 1.0 mg./kg. body weight. At a dose of 10.0 mg./kg. body weight, the prior art cinnamylamidine provides an increase of 26% in blood pressure.

Series [3] relates to blood pressure. In words: Blood pressure in spontaneous hypertensive rat. The format is in vivo. The procedure: as §1
The conditions of series [4]: as reported in U.S. Pat. No. 3,413,345; cited from earlier work.

SMILES strings stand for the structures.

Take `CN1C(c2ccccc2)=NS(=O)(=O)CC1c1ccc([N+](=O)[O-])cc1` (centres unmarked) [5,6-dihydro-4-methyl-5-(4-nitrophenyl)-3-phenyl-4H-1,2,4-thiadiazine 1,1-dioxide]: the “CNS effect” value with CNS is on record as “non-specific CNS depression”. Moreover, the “Prevention of the phenylquinone writhing syndrome” value in series [1] (oral dose 100 mg./kg. body weight) and in series [1] (subcutaneous dose 6 mg./kg. body weight) was “not effective” throughout.

For the compound `CC(=N)N/C=C/c1c(Cl)cccc1Cl` [N-(2,6-dichlorostyryl)acetamidine], the “Urine output” value in the series with urine output (oral, 12.5 mg./kg. body weight) is “doubled the urine output”. For the same compound, the ED50 in the series with mouse electroshock (oral) is 44 mg/kg. Further, the “Reduction in blood pressure” value in the series with blood pressure [2] (intravenous 1.0 mg./kg.) was 33%; in the series on blood pressure [2] (intravenous 10.0 mg./kg.), 64%; in the series with blood pressure [2] (intravenous 0.01 to 10 mg./kg.), “dose related reduction in blood pressure”. In addition, the “Reduction of blood pressure” value in the series on blood pressure [3] (oral 5 to 50.0 mg./kg.) was “substantial reduction of blood pressure”.

For the compound `CC(=N)NCC=Cc1ccc(Cl)cc1` [N-(4-chlorocinnamyl)acetamidine, reference compound], the “Diuretic activity” value in the series on urine output (oral dose 30 mg./kg. body weight) is “essentially inactive”. Moreover, in the series with mouse electroshock (250 mg./kg. body weight), the “Activity in mouse electroshock test” value was “completely inactive”. In the series on blood pressure [2] (1.0 mg./kg.), the “Decrease in heart rate” value is 6% and the “Increase in blood pressure” value is recorded as 12%. Besides, in the series on blood pressure [2] (10.0 mg./kg.), the “Increase in blood pressure” value is reported as 26%. Further, the “Hypotensive effect” value in series [4] is “hypotensive effects which are quick in onset and of considerable duration”. In the series on blood pressure [3] (50 mg./kg.), the “Antihypertensive effect” value is listed as “devoid of antihypertensive effects” and the “Change in blood pressure” value is “slight increase in blood pressure”.

The term ED50 denotes the dose that gives a 50% effect, or the effect in half of the subjects. A high value points to a need for a large dose.

The record behind these values is US4052455A, “Styrylamidines” (Mead Johnson & Company, priority 1975, dated 1977).
